From patent publication US11696904B2, “Prodrug for therapeutic applications” (The Regents of the University of California, priority 2020, dated 2023)

Columns and labels:
[1] = test system: circulating B and T lymphocytes; test: Lymphocyte sequestration; assay type: in vivo, mice; details: 10 mg/kg (32 μmol/kg) i.p., blood 12 h post-injection, compared to saline or FTY-k-PEG
Description: Lymphocyte sequestration. Female 8-24 week old C57BL6 mice were intraperitoneally injected with vehicle (0.9% saline or 20% acidified DMSO in 0.9% saline), 10 mg/kg (32 μmol/kg) fingolimod, or 155 mg/kg FTY-k-PEG (32 μmol/kg). After 12 h, blood was collected from the retro-orbital sinus under ketamine/xylazine anesthesia. Whole blood (10 μL) was added to 190 μL of ACK red blood cell lysis buffer, the mixture was incubated at ambient temperature for 3-5 min […], and the white blood cells were recovered by centrifugation. Nucleated cells (Hoechst33342-positive) were counted using a hemocytometer to obtain the white blood cell count. Separately, 50 μL of whole blood was added to 1 mL of ACK red blood cell lysis buffer and incubated for 3-5 min at RT. Cells were washed with 2% fetal calf serum (FCS, Atlanta Biologicals (Flowery Branch, Ga.) in PBS with 0.05% NaN3 (Sigma Aldrich (Milwaukee, Wis.)) and red blood cell lysis was repeated. Tubes were decanted and resuspended in 100 μL of 10% FCS in PBS with 0.05% NaN3 and directly conjugated antibodies against B220, CD4, or CD8 (all from Biolegend, San Diego, Calif.) for 30 min on ice. Cells were analyzed on a BD LSR II flow cytometer; the analysis was restricted to live cells (DAPI-negative).
Avoided bradycardia and lymphopenia in vivo by FTY-k-PEG. […]

[2] = DNAge (epigenetic aging clock) analysis; assay type: in vivo; details: healthy BALB/c mice, 32 μmol/kg daily i.p., blood two days post-treatment
Description: DNAge® (epigenetic aging clock) analysis. Blood samples (100 μL) were collected in triplicate from healthy female BALB/c mice treated as described above. Upon immediate preservation in DNA/RNA Shield™ (Zymo Research, Irvine, Calif.), genomic DNA was purified using Quick-DNA Plus Kit (Zymo Research) as instructed by the manufacturer. Sample library preparation and data analysis for mouse DNAge® (epigenetics aging clock) were performed by service provider (Zymo Research). Briefly, genomic DNA (200 ng) was bisulfite-converted using EZ DNA Methylation_Lightning™ Kit (Zymo Research). Bisulfite-converted DNA libraries for targeted bisulfite sequencing platform, called SWARM® (Simplified Whole-panel Amplification Reaction Method), were sequenced on a HiSeq 1500 sequencer for >1,000× coverage. Sequence reads were identified using Illumina base calling software (San Diego, Calif.) and aligned to the reference genome using Bismark, an aligner optimized for bisulfite sequence data and methylation calling. The methylation level of each sampled cytosine was estimated as the number of reads reporting a C, divided by the total number of reads reporting a C or T. DNA methylation levels of >500 age-related CpG loci were used for age prediction using Zymo Research's proprietary […] DNAge® algorithms: […]

[3] = test system: FL5.12/p190-Luc cells; test: In vivo bioluminescence imaging, BCR-Abl-driven leukemogenesis model; details: 32 μmol/kg daily i.p., day 6, Balb/c mice, p<0.01
Description: In vivo bioluminescence imaging. In an immunocompetent syngeneic model, 6-7 weeks old Balb/c female mice were intravenously injected with Ph+FL5.12/p190/Luc cells (1.0×10^5 cells per mouse) in the tail vein. After 5 days, the mice received daily i.p. injections of fingolimod, FTY-k-PEG, FTY-PEG (all at a dose of 32 μmol/kg) or PBS for 5 days (n=5). Mice were placed under anesthesia using isoflurane (Patterson Veterinary, Greeley, Colo.) and interperitoneally injected with 120 mg/kg of synthetic firefly luciferin (Promega, Madison, Wis.) in PBS at a concentration of 20 mg/mL immediately prior to bioluminescence imaging with an IVIS Lumina system (Caliper Life Sciences, Hopkinton, Mass.) for 4 min. Mice were under anesthesia for the entire duration of imaging and bioluminescence signal intensities in mice were quantified using Living Image 3.2 software associated with the imaging system.
Preserved anti-leukemic effect of FTY-k-PEG in vivo. To assess the anti-leukemic effects of FTY-k-PEG in vivo while eliminating bradycardia and immunosuppressive activity, a BCR-Abl-driven leukemogenesis model in which fingolimod is effectively was used. […] The leukemic expansion of FL5.12/p190-Luc cells was assessed by i.p. administration of synthetic firefly luciferin (120 mg/kg) and subsequent bioluminescence imaging (see FIG. 12B-D). […]

[4] = test system: C57BL/6 mice; test: Heart rate (ECG telemetry); assay type: in vivo; details: single i.p. dose 10 mg/kg, monitored 10 h, conscious mice
Description: Heart rate. Male C57BL/6 mice age 4-6 months were surgically implanted with DSI TA-ETAF20 electrocardiographic telemetry devices (Data Sciences International, St. Paul, Minn.) in the mouse's abdominal cavity with biopotential leads sutured in place in the chest wall. The electrocardiographic data was collected and recorded using the PhysioTel telemetry system and Dataquest A.R.T 4.0 software (Data Sciences International). Mice were permitted two week-long recovery after surgery before initiation of baseline telemetry recordings. Heart rate was calculated from ECG data taken in the freely moving, conscious mice. Mice (n=3) were intraperitoneally treated with a single dose of vehicle (0.9% saline or 20% acidified DMSO in 0.9% saline), 10 mg/kg fingolimod, or 155 mg/kg FTY-k-PEG, and heart rate was continuously monitored for 10 h. Mice were rested for two weeks at which point the experiment was repeated with the mice assigned to the alternate group. […]
Avoided bradycardia and lymphopenia in vivo by FTY-k-PEG. To test whether FTY-k-PEG avoids bradycardia, C57BL/6 mice were surgically implanted with an electrocardiographic telemetry device and heart rate was calculated from ECG data taken in the freely moving, conscious mice after intraperitoneal (i.p.) injection of saline, fingolimod, or acid-cleavable FTY-k-PEG (see FIG. 10A). […]

[5] = Water solubility of FTY prodrugs; assay type: physicochemical; details: for water solubility: qualitative
Description: Design and synthesis of FTY-k-PEG. Acetals (ketals) were chosen for their structural versatility, facile synthesis, and tunable cleavability under mildly acidic conditions. The endosomal pH of ˜5.0 is an excellent intracellular trigger for drug release from acid-labile drug conjugates. Initial synthetic methodology utilized 2-methoxypropene to generate methyl ketal-functionalized fingolimod (mkFTY) (see FIG. 2). […] To retain the ketal moiety while increasing solubility of the prodrug, N-Fmoc piperidone was used to generate a cyclic ketal in kFTY (7) (see FIG. 3), eliminating the hydrophobic methyl groups and incorporating a secondary amine as a functional handle for further conjugation. The ketal formation was achieved using azeotropic distillation by which constant removal of water efficiently drives the reaction to completion. […] To further increase water solubility, kFTY was conjugated to succinimidyl carboxyl methyl ester polyethylene glycol (SCM-PEG 5 k) prior to trifluoroacetamide (TFA)-deprotection to produce FTY-k-PEG (8). FTY-k-PEG was analyzed by MALDI-TOF to confirm PEGylation and TFA-deprotection (see FIG. 4). […] Other macromolecules may be used for conjugation, and a plethora of stimuli-responsive linkers may be explored to further enhance the specificity and safety of an FTY prodrug. The acid-cleavable ketal linkage can be replaced by other moieties responsive to intrinsic environmental stimuli (redox, pH, etc.), external stimuli (heat, ultrasound, photo-irradiation, electrochemical, magnetic, etc.), or specific biological processes (enzymatic cleavage, ion chelation, etc.), depending the molecular structure of a drug and the stimuli to be utilized for target indication. In addition, a variety of macromolecules can also be used in lieu of PEG, including polysaccharides (i.e., hyaluronic acids), peptides, and various synthetic polymers for improved water-solubility, extended circulation, avoided premature activation, nanoparticle formulation, theranostic applications, combating resistance, and specific targeting. […]

[6] = test system: nutrient transporter associated protein 4F2hc; test: Nutrient transporter expression (surface 4F2hc, flow cytometry); assay type: cell-based, murine; details: FL5.12 cells, 3 h treatment, compared to fingolimod
Description: Cell culture. Murine IL-3-dependent proB-cell lymphoid FL5.12 cells and FL5.12/BCR-Abl p190 cells were obtained by gift. FL5.12/p190 cells were transduced to express firefly luciferase by lentiviral vectors purchased from Capital Bioscience (Gaithersberg, Md.). FL5.12/p190 and luciferase-expressing FL5.12/p190 cells (FL5.12/p190/Luc cells) were maintained at 250,000-800,000 cells/mL in RPMI 1640 media containing 10% (v/v) FBS and 1% (v/v) streptomycin-penicillin. FL5.12 cells were cultured in the same media supplemented with 5 ng/mL IL3. All cells were cultured at 37° C. with 5% CO2 and 100% humidity.
Nutrient transporter expression. Surface 4F2hc expression was measured using phycoerythrin (PE)-conjugated rat anti-mouse 4F2hc antibody (BD Pharmingen, San Diego, Calif.); analysis by flow cytomery was restricted to viable cells. PE-conjugated mouse IgG1, k (BD Pharmingen) was used as an isotype control. Cells were analyzed on a BD LSR II flow cytometer (BD Biosciences, San Jose, Calif.) and with FlowJo software (Treestar, Ashland, Oreg.).
To confirm active drug was released selectively upon acid-hydrolysis, drugs were incubated in buffers of pH 7.4 and pH 5.0 prior to incubation with the cells (see FIG. 8). Fingolimod was pre-incubated in the same buffers to rule out the possibility that the buffers would affect drug's activity or contribute to cell apoptosis. […]

| Compound | reduction of lymphocytes [1] | epigenetic age [2] | average bioluminescence signal lower than that of PBS [3] | reduction of heart rate [4] | concentration up to which readily soluble in water [5] | water solubility [5] | down-regulation of surface 4F2hc expression [6] |
| --- | --- | --- | --- | --- | --- | --- | --- |
| CCCCCCCCc1ccc(CCC(N)(CO)CO)cc1 [fingolimod, Fingolimod] | ~60% | significant increase in epigenetic age | 64% | 50% |  |  |  |
| CCCCCCCCc1ccc(CCC2(N)COC3(CCNCC3)OC2)cc1 [kFTY] |  |  |  |  | ≤ 10000 µM | increased water solubility compared to mkFTY |  |
| CCCCCCCCc1ccc(CCC2(N)COC(C)(C)OC2)cc1 [mkFTY] |  |  |  |  |  | loss of water solubility | nearly identical efficacy to fingolimod |
